The test system of the test is P388 leukemia ip, CD2F1 mice, survival T/C. In words: NCI In Vivo Anticancer Drug Screen. Data for tumor model P388 Leukemia (intraperitoneal) in CD2F1 (CDF1) mice. The settings on record: endpoint: median survival time, higher = longer survival. The essentials:
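Mice carrying the transplanted tumor received test compound or vehicle. Survival was recorded in each group, and the value is the treated-group measurement divided by that of the vehicle-treated control group.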

[1] abbreviates: dose: 6.25 mg/kg/injection, schedule: Q01DX009 (ip), vehicle: Klucel (hydroxypropylcellulose) (HPC).
[2] abbreviates: dose: 12.5 mg/kg/injection, schedule: Q01DX009 (ip), vehicle: Klucel (hydroxypropylcellulose) (HPC).
[3] abbreviates: dose: 25.0 mg/kg/injection, schedule: Q01DX009 (ip), vehicle: Klucel (hydroxypropylcellulose) (HPC).
The mark [4] stands for this setting: dose: 50.0 mg/kg/injection, schedule: Q01DX009 (ip), vehicle: Klucel (hydroxypropylcellulose) (HPC).
[5] abbreviates: dose: 60.0 mg/kg/injection, schedule: Q01DX005 (ip), vehicle: saline with Tween-80.
Setting [6] is: dose: 120.0 mg/kg/injection, schedule: Q01DX005 (ip), vehicle: saline with Tween-80.
[7] abbreviates: dose: 240.0 mg/kg/injection, schedule: Q01DX005 (ip), vehicle: saline with Tween-80.
Where [8] appears, read: dose: 50.0 mg/kg/injection, schedule: Q01DX009 (ip), vehicle: saline with Tween-80.
Where [9] appears, read: dose: 100.0 mg/kg/injection, schedule: Q01DX009 (ip), vehicle: saline with Tween-80.
Setting [10] is: dose: 50.0 mg/kg/injection, schedule: Q01DX005 (ip), vehicle: saline with Tween-80.
Where [11] appears, read: dose: 100.0 mg/kg/injection, schedule: Q01DX005 (ip), vehicle: saline with Tween-80.
Where [12] appears, read: dose: 200.0 mg/kg/injection, schedule: Q01DX005 (ip), vehicle: saline with Tween-80.

“And” between values parts separate entries of the source, which are not always exact repeats. Equal entries are not always repeated. Toxic doses and inconclusive results are not listed. Peptide text beside a SMILES is read from it. * marks the point of attachment. For = O=C*

Turning to `CCCCCC[C@H]([C@H](C)O)n1cnc2c(N)ncnc21`, the T/C runs as follows: (dose: 1.56 mg/kg/injection, schedule: Q01DX009 (ip), vehicle: Klucel (hydroxypropylcellulose) (HPC)) 100 % of control; (dose: 3.12 mg/kg/injection, schedule: Q01DX009 (ip), vehicle: Klucel (hydroxypropylcellulose) (HPC)) 100 % of control; (dose: 4.0 mg/kg/injection, schedule: Q01DX005 (ip), vehicle: Klucel (hydroxypropylcellulose) (HPC)) 100 % of control; under setting [1], 98 % of control; (dose: 8.0 mg/kg/injection, schedule: Q01DX005 (ip), vehicle: Klucel (hydroxypropylcellulose) (HPC)) 102 % of control; under setting [2], 105 % of control. For the same compound, the T/C reads like this: (dose: 16.0 mg/kg/injection, schedule: Q01DX005 (ip), vehicle: Klucel (hydroxypropylcellulose) (HPC)) 100 % of control; under setting [3], 105 % of control and 96 % of control; (dose: 32.0 mg/kg/injection, schedule: Q01DX005 (ip), vehicle: Klucel (hydroxypropylcellulose) (HPC)) 104 % of control; under setting [4], 104 % of control and 96 % of control; (dose: 64.0 mg/kg/injection, schedule: Q01DX005 (ip), vehicle: Klucel (hydroxypropylcellulose) (HPC)) 100 % of control; (dose: 100.0 mg/kg/injection, schedule: Q01DX009 (ip), vehicle: Klucel (hydroxypropylcellulose) (HPC)) 98 % of control. Besides, the T/C (dose: 200.0 mg/kg/injection, schedule: Q01DX009 (ip), vehicle: Klucel (hydroxypropylcellulose) (HPC)) was 98 % of control.
As for `NC(CSCc1ccccc1)C(=O)Nc1ccc([N+](=O)[O-])cc1` (centres undefined), the T/C reads like this: (dose: 50.0 mg/kg/injection, schedule: Q01DX005 (ip), vehicle: Klucel (hydroxypropylcellulose) (HPC)) 110 % of control; (dose: 100.0 mg/kg/injection, schedule: Q01DX005 (ip), vehicle: Klucel (hydroxypropylcellulose) (HPC)) 101 % of control; (dose: 200.0 mg/kg/injection, schedule: Q01DX005 (ip), vehicle: Klucel (hydroxypropylcellulose) (HPC)) 104 % of control.
Regarding `O/N=C(/Cc1nc2cc(Cl)c(Cl)cc2nc1C/C(=N/O)c1ccncc1)c1ccncc1`, the T/C was 102 % of control under setting [5], 100 % of control under setting [6] and 102 % of control under setting [7].
Turning to `CCCC1=CC(C)(C)CC(C)=C1` (tested in a mixture with another compound), the T/C (dose: 50.0 mg/kg/injection, schedule: Q01DX009 (ip), vehicle: saline sonified) is 95 % of control; the T/C (dose: 100.0 mg/kg/injection, schedule: Q01DX009 (ip), vehicle: saline sonified) was 95 % of control; the T/C (dose: 200.0 mg/kg/injection, schedule: Q01DX009 (ip), vehicle: saline sonified) was 90 % of control.
`CSc1ccc(C)cc1C(C)=O`: the T/C (dose: 50.0 mg/kg/injection, schedule: Q01DX005 (ip), vehicle: acetone) is 93 % of control; the T/C (dose: 100.0 mg/kg/injection, schedule: Q01DX005 (ip), vehicle: acetone) is 99 % of control; the T/C (dose: 200.0 mg/kg/injection, schedule: Q01DX005 (ip), vehicle: acetone) was 100 % of control.
As to `CN(C)c1ccc2[nH]cc(C(=O)O)c(=O)c2c1`, the T/C (dose: 7.5 mg/kg/injection, schedule: Q01DX005 (ip), vehicle: Klucel (hydroxypropylcellulose) (HPC)) is 99 % of control; the T/C (dose: 15.0 mg/kg/injection, schedule: Q01DX005 (ip), vehicle: Klucel (hydroxypropylcellulose) (HPC)) was 102 % of control; the T/C (dose: 30.0 mg/kg/injection, schedule: Q01DX005 (ip), vehicle: Klucel (hydroxypropylcellulose) (HPC)) is 102 % of control.
`CN(C)CCCN1CN(CCCN(C)C)CC(C)(C)C1`: the T/C reads like this: under setting [8], 103 % of control; under setting [9], 106 % of control.
In the case of `CC(/C=C/c1ccccc1)=N\NC(N)=O`, the T/C was 105 % of control (dose: 50.0 mg/kg/injection, schedule: Q01DX009 (ip), vehicle: saline); 115 % of control (dose: 100.0 mg/kg/injection, schedule: Q01DX009 (ip), vehicle: saline); 118 % of control (dose: 200.0 mg/kg/injection, schedule: Q01DX009 (ip), vehicle: saline).
For the compound `Nc1nc([Se])c2ncn(C3CC(O)C(CO)O3)c2n1` (centres undefined), the T/C runs as follows: under setting [2], 160 % of control; under setting [3], 169 % of control and 173 % of control; under setting [4], 112 % of control.
In the case of `CCOC(=O)Nc1nc2ccc(NC(C)=O)cc2s1`, the T/C was 104 % of control under setting [1], 105 % of control under setting [2], 102 % of control under setting [3] and 96 % of control under setting [4].
On to `CC(NC=O)C(=O)NCC(=O)NC(CO)C(=O)NC(CCC(=O)O)C(=O)O` (centres undefined) (For-AGSE-OH; configuration not given here), for which the T/C by setting is: (dose: 7.81 mg/kg/injection, schedule: Q01DX005 (ip), vehicle: water) 105 % of control; (dose: 15.63 mg/kg/injection, schedule: Q01DX005 (ip), vehicle: water) 104 % of control; (dose: 31.25 mg/kg/injection, schedule: Q01DX005 (ip), vehicle: water) 101 % of control; (dose: 62.5 mg/kg/injection, schedule: Q01DX005 (ip), vehicle: water) 101 % of control; (dose: 125.0 mg/kg/injection, schedule: Q01DX005 (ip), vehicle: water) 99 % of control.
`COC(=O)C1(CC(C)=O)NC(=S)NC(=O)C1C#N` (centres undefined): the T/C reads like this: (dose: 60.0 mg/kg/injection, schedule: Q01DX005 (ip), vehicle: saline) 100 % of control; (dose: 120.0 mg/kg/injection, schedule: Q01DX005 (ip), vehicle: saline) 96 % of control; (dose: 240.0 mg/kg/injection, schedule: Q01DX005 (ip), vehicle: saline) 97 % of control.
For `CCSC(C(O)C(O)C(O)C(O)CO)n1cnc2c(=S)nc[nH]c21` (centres undefined), the T/C reads like this: (dose: 25.0 mg/kg/injection, schedule: Q01DX009 (ip), vehicle: water) 97 % of control; (dose: 50.0 mg/kg/injection, schedule: Q01DX009 (ip), vehicle: water) 94 % of control; (dose: 100.0 mg/kg/injection, schedule: Q01DX009 (ip), vehicle: water) 105 % of control; (dose: 200.0 mg/kg/injection, schedule: Q01DX009 (ip), vehicle: water) 105 % of control; (dose: 400.0 mg/kg/injection, schedule: Q01DX009 (ip), vehicle: water) 96 % of control.
As for `O/N=C/C(=Nc1ccc(-c2ccc(N=C(/C=N/O)NO)cc2)cc1)NO`, the T/C (dose: 60.0 mg/kg/injection, schedule: Q01DX005 (ip), vehicle: Klucel (hydroxypropylcellulose) (HPC)) is 103 % of control; the T/C (dose: 120.0 mg/kg/injection, schedule: Q01DX005 (ip), vehicle: Klucel (hydroxypropylcellulose) (HPC)) is 102 % of control; the T/C (dose: 240.0 mg/kg/injection, schedule: Q01DX005 (ip), vehicle: Klucel (hydroxypropylcellulose) (HPC)) was 97 % of control.
On to `CC1(C)OC2OC(COC(=O)c3ccccc3)C(OS(C)(=O)=O)C2O1` (centres undefined), for which the T/C by setting is: under setting [10], 103 % of control; under setting [11], 100 % of control; under setting [12], 102 % of control.
On to `N#Cc1cc2ccccc2nc1SN`, for which the T/C is 100 % of control (dose: 50.0 mg/kg/injection, schedule: Q01DX005 (ip), vehicle: saline); 99 % of control (dose: 100.0 mg/kg/injection, schedule: Q01DX005 (ip), vehicle: saline); 98 % of control (dose: 200.0 mg/kg/injection, schedule: Q01DX005 (ip), vehicle: saline).
On to `Cc1ccc(CCNC(=O)c2c3nc4c(C(=O)NCCc5ccc(C)cc5)cccc4oc-3cc(=O)c2N)cc1`, for which the T/C was 93 % of control under setting [10], 87 % of control under setting [11] and 100 % of control under setting [12].
`CC1(c2ccc([N+](=O)[O-])cc2)OC(=O)C(=Cc2ccc([N+](=O)[O-])s2)C(=O)O1` (centres undefined): the T/C under setting [8] is 103 % of control; the T/C under setting [9] was 96 % of control; the T/C (dose: 200.0 mg/kg/injection, schedule: Q01DX009 (ip), vehicle: saline with Tween-80) was 103 % of control.
As to `CC1=CCCCC1=O`, the T/C was 107 % of control under setting [5], 106 % of control under setting [6] and 102 % of control under setting [7].
Taken in the same sequence, the figures for `CCOC(=O)c1cn(CC)c2cc(-n3cccc3)ccc2c1=O` were 93 % of control, 98 % of control and 92 % of control.

The values above are taken from PubChem BioAssay AID330 (DTP/NCI, 2004).
